Assay results: patent publication US20260242452A1, “METHOD FOR DEGRADING TARGET PROTEIN” (Inter-University Research Institute Corporation Research …, priority 2023, published 2026)

Columns and labels:
Assay type in all cases: cell-based, human
RAD21-GFP = experiment: Degradation of RAD21-GFP, GFP fluorescence quantified by flow cytometry (FACS); details: 1 μM 5-Ph-IAA, 4 hours; HCT116 cells expressing RAD21-GFP, OsTIR1 (F74G) and GFP nanobody adapter
Method: As the mAID-single-chain antibody (nanobody) gene, in addition to the WT adapter and the KR adapter, a hybrid adapter in which all lysine residues (K) in the amino acid sequence encoded by the mAID gene were substituted with arginine residues (R) was prepared. As in Example 1, a co-expression vector in which the OsTIR1 (F74G) gene and the WT adapter, the KR adapter, or the hybrid adapter were connected by a self-cleaving sequence P2A gene was prepared (see FIG. 7).
In the chromosome of HCT116 cells, DNA encoding GFP was added to the downstream of DNA encoding each of the nuclear protein SMC6, the nuclear protein RAD21, and the cytoplasmic protein DHC1 by genome editing, and cells expressing SMC6-GFP and cells expressing DHC1-GFP were prepared (see FIG. 8).
A co-expression vector containing an adapter (WT adapter; KR adapter; hybrid adapter) that contains a gene encoding a GFP nanobody (GFP nanobody WT (SEQ ID NO: 9); GFP nanobody KR (SEQ ID NO: 10)), together with the OsTIR1 (F74G) gene, was introduced into the cells expressing each SMC6-GFP, RAD21-GFP, and DHC1-GFP by transposon. As a control, a plasmid in which only OsTIR1 (F74G) and mAID were expressed was introduced (see FIG. 8).
(§1) These cells were treated with 1 μM 5-Ph-IAA for 4 hours, and the GFP fluorescence in the cells was quantified using flow cytometry. […]

SMC6-GFP = experiment: Degradation of SMC6-GFP, GFP fluorescence quantified by flow cytometry (FACS); details: 1 μM 5-Ph-IAA, 4 hours; HCT116 cells expressing SMC6-GFP, OsTIR1 (F74G) and GFP nanobody adapter
Method: (§2) As an mAID-single-chain antibody (nanobody) gene (also referred to as an adapter), a wild-type (WT adapter) and a ubiquitination-resistant mutant (KR adapter) in which all lysine residues (K) in the amino acid sequence encoded by the mAID-single-chain antibody (nanobody) gene were substituted with arginine residues (R) were prepared.
(§3) A co-expression vector in which the OsTIR1 (F74G) gene and the WT adapter or the KR adapter were connected by a self-cleaving sequence P2A gene was prepared (see FIG. 2).
(§4) In the chromosome of HCT116 cells, DNA encoding GFP was introduced into the downstream of DNA encoding each of the nuclear protein SMC6 and the cytoplasmic protein DHC1 by transposon, and cells expressing SMC6-GFP and cells expressing DHC1-GFP were prepared.
(§5) A co-expression vector containing an adapter (WT adapter; KR adapter) that contains a gene encoding a GFP nanobody (GFP nanobody WT gene sequence (SEQ ID NO: 9); GFP nanobody KR gene sequence (SEQ ID NO: 10)), together with the OsTIR1 (F74G) gene, was introduced into the cells expressing each SMC6-GFP and DHC1-GFP. […]
as §1, §1

DHC1-GFP = experiment: Degradation of DHC1-GFP, GFP fluorescence quantified by flow cytometry (FACS); details: 1 μM 5-Ph-IAA, 4 hours; HCT116 cells expressing DHC1-GFP, OsTIR1 (F74G) and GFP nanobody adapter
Method: as §2, §3, §4, §5, §1, §1

endogenous RAS = experiment: Expression level of endogenous RAS by Western blotting; details: 1 μM 5-Ph-IAA, 6 hours; cells expressing OsTIR1 (F74G) and RAS nanobody hybrid adapter
Method: Furthermore, the same experiment was performed using an adapter (KR adapter; hybrid adapter) containing a gene encoding a RAS nanobody (gene sequence of RAS nanobody WT (SEQ ID NO: 14), amino acid sequence of RAS nanobody WT (SEQ ID NO: 15); gene sequence of RAS nanobody KR (SEQ ID NO: 16), amino acid sequence of RAS nanobody KR (SEQ ID NO: 17)) (see the left part of FIG. 11). The cells were treated with 1 μM 5-Ph-IAA for 6 hours, and the expression level of endogenous RAS was confirmed by Western blotting. The results are shown in the right part of […].

endogenous p53 = experiment: Expression level of endogenous p53 by Western blotting; details: 1 μM 5-Ph-IAA, 6 hours; cells expressing OsTIR1 (F74G) and p53 nanobody KR adapter
Method: Furthermore, the same experiment was performed using an adapter (WT adapter; KR adapter) containing a gene encoding a p53 nanobody (p53 nanobody WT gene sequence (SEQ ID NO: 11); p53 nanobody KR gene sequence (SEQ ID NO: 12)) (see the left part of FIG. 6). The cells were treated with 1 μM 5-Ph-IAA for 6 hours, and the expression level of endogenous p53 was confirmed by Western blotting. The results are shown in the right part of FIG. 6.
Furthermore, the same experiment was performed using an adapter (WT adapter; KR adapter; hybrid adapter) containing a gene encoding a p53 nanobody (p53 nanobody WT gene sequence (SEQ ID NO: 11); p53 nanobody KR gene sequence (SEQ ID NO: 12)) (see the left part of FIG. 10). The cells were treated with 1 μM 5-Ph-IAA for 6 hours, and the expression level of endogenous p53 was confirmed by Western blotting. The results are shown in the right part of […].

## O=C(O)Cc1c[nH]c2ccc(-c3ccccc3)cc12 [Formula 5-Ph-IAA, 5-Ph-IAA]
RAD21-GFP
  5-Ph-IAA-dependent degradation of target protein RAD21-GFP (GFP fluorescence): could be degraded
SMC6-GFP
  5-Ph-IAA-dependent degradation of target protein SMC6-GFP (GFP fluorescence): could be degraded
DHC1-GFP
  5-Ph-IAA-dependent degradation of target protein DHC1-GFP (GFP fluorescence): could be degraded
Endogenous RAS
  5-Ph-IAA-dependent degradation of endogenous RAS (Western blotting): could be efficiently degraded
Endogenous p53
  5-Ph-IAA-dependent degradation of endogenous p53 (Western blotting): could be degraded
